Experimental findings from patent US10124033B2, “Peptides and methods of use” (BAXALTA INCORPORATED, priority 2014, dated 2018) are described below.

Non-standard residues stand in square brackets, D forms with d. Residues, ends and D or L forms follow the SMILES beside them. Tle = CC(C)(C)[C@H](N)C(=O)O

One data set deals with T1, Protein S (Homo sapiens, UniProt P07225).
T1 sequence (P07225 41-676 limits assumed): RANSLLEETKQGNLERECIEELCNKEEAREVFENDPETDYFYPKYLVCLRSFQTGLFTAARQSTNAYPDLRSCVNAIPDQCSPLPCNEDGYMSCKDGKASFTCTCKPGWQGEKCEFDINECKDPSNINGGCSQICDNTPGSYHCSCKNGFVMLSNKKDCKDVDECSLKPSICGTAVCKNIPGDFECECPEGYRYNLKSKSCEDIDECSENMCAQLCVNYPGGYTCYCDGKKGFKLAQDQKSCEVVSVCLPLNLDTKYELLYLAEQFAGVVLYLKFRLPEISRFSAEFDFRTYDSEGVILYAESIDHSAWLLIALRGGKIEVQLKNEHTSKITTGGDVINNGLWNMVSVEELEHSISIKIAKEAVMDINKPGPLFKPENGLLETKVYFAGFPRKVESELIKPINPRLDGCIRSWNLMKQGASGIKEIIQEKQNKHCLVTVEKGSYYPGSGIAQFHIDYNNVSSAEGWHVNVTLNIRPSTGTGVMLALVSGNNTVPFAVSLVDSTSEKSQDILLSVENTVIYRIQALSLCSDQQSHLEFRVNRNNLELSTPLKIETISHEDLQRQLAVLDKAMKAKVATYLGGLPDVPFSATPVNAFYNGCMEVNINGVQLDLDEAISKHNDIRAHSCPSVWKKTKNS
Description: LANCE IC50 assay (competition TR-FRET) with tracer JBS0684. Format: binding. Particulars: Table 4, multiple substitutions in JBS2572; read-out: LANCE IC50. On the procedure: Peptides also were characterized in a competition, homogenous europium-based TR-FRET assay (LANCE IC50 assay) using JBS0684 as a tracer (i.e., competitor for Protein S binding). The following reagents were mixed together in a Perkin-Elmer ProxiPlate MTP well (indicated concentration is the final concentration): Eu-labeled Protein S (10 nM), Ulight™-labeled Streptavidin (100 nM), tracer (JBS0684 (300 nM)), and peptide (titrated in three-fold dilution steps). The final volume was 50 μl/well. The reaction mix was incubated for 1 hour at room temperature, then the fluorescence emission at 665 nm was recorded on a multi-mode reader (SpectraMax® M5, Molecular Devices) using the following instrument settings: Ex 340 nm, Em 665 nm, delay 50 μsec, integration 100 μsec, reads 100. Binding of tracer peptides to soluble europium-labeled Protein S was detected by Streptavidin labeled with an acceptor fluorophor (ULight™). Inhibition of tracer-binding to Protein S by a non-biotinylated peptide results in a decrease of TR-FRET between the Eu-labeled Protein S and ULight™-labeled Streptavidin. IC50 values were obtained from peptide titration curves at constant tracer concentration using non-linear regression of the fluorescence emission signals at 665 nm.
A general note: In TR-FRET formats the signal depends on donor and acceptor labels being close together.

Data set [1] addresses T2, Protein S/APC cofactor activity (Homo sapiens, UniProt P07225).
T2 construct: host or cells: plasma
T2 sequence (P07225 41-676 limits assumed): T1 sequence (P07225 41-676 limits assumed)
Description: CAT assay in pooled normal plasma supplemented with 3 nM APC. Format: biochemical. Particulars: 6 pM TF, 15 μM phospholipids. On the procedure: Peptides also were tested for improvement of Protein S/APC-dependent thrombin generation in hemophilic plasma using a CAT assay. Protein S enhances the anticoagulation of APC in plasma. The CAT assay quantifies the effect of Protein S on APC-mediated thrombin generation initiated via the extrinsic coagulation pathway (Nicolaes, Blood Coagul. Fibrinolysis, 8:28 (1997)). APC (35 nM) and Protein S (25 nM) was added to Protein 5-depleted plasma, and plasma samples were incubated with high titer heat inactivated anti-human FVIII plasma raised in goat (4490 BU/ml; Baxter BioScience, Vienna, Austria; 50 BU/ml final plasma concentration). Thrombin formation in plasma was followed by calibrated automated thrombography (CAT) in a Fluoroskan Ascent® reader (Thermo Labsystems, Helsinki, Finland) and quantified via the thrombin peak-height. Thrombin generation was determined at high tissue factor (TF) concentration in the absence and in the presence of APC at a concentration that reduces the peak height to 20%. The inhibitory effect of peptides described herein on the APC cofactor activity of Protein S (PS) in plasma was measured in FVIII-inhibited pooled normal plasma supplemented with APC. Complete (100%) Protein S/APC inhibition is the height of the thrombin peak without addition of APC. Lack of (0%) PS/APC inhibition correlates to the thrombin peak-height value with a certain amount of APC. Peptides were ranked by their normalized values in comparison to the mean of wild-type controls including SD at two defined peptide concentrations (EC50 and EC90). […] For the assays, pooled normal plasma was supplemented with 3 nM APC and triggered with 6 pM TF, and 15 μM phospholipids (DOPC/POPS 80/20). Stock APC was diluted with TF-PL-MIX to 24 nM (plasma concentration: 3 nM).

Data set [2] has as its target T3, human full-length Protein S (Homo sapiens, UniProt P07225).
T3 construct: using human full-length Protein S and human GAS6
T3 sequence (P07225 41-676 limits assumed): T1 sequence (P07225 41-676 limits assumed)
Put plainly: Biacore (surface plasmon resonance) on immobilized Protein S. Particulars: Biacore. Format: binding. On the procedure:
Protein S affinity also was determined via Biacore (Biacore 3000 or Biacore T200) using human full-length Protein S and human GAS6. Briefly, 1000 RU of Protein S or GAS6 were immobilized on a CMS chip. In order to probe the kinetics of Protein S binding peptides to Protein S, the peptides were injected at various concentrations in a HBS-buffer containing 3 mM CaCl2 and 1% DMSO to the flow cell and allowed to interact with the immobilized proteins on the sensor chip. The chip could be regenerated with 4 M MgCl2 in HBS-buffer. Sensorgrams were fitted to a Langmuir binding model for the determination of kon and koff and the calculation of KD. Peptides were tested on their specificity to Protein S with peptide binding studies on the anti-target GAS6.
In general terms: In SPR one partner is held on a chip, and binding of the other changes the refractive index at the surface.

A short description of data set [3]: plasma stability in mouse plasma. As to conditions: 37° C. The class given is in vitro ADME. The protocol: (§1) Affinity and activity of all 18 peptides was improved compared to parent JBS2572. […] Activity and stability were improved up to 1.5-fold. Plasma stability was determined in pooled normal human plasma and mouse plasma at 37° C.; exemplary results also are provided in Table 3.

A further data set concerns thrombin generation. Description: thrombin generation in non-human mammals. As to conditions: cynomolgous monkey, marmoset monkey, pig, sheep, dog, rabbit, rat, and mouse. Format: biochemical.
For the next data set, the target named is T4, C4BP/PS complex (Homo sapiens, UniProt P07225).
T4 sequence (P07225 41-676 limits assumed): T1 sequence (P07225 41-676 limits assumed)
Put plainly: LANCE IC50 assay on preformed C4BP/PS complex. The class given is binding. Particulars: two hours of incubation, 100 nM peptide. The protocol:
To investigate the effect of the peptides described herein on PS/C4BP complexes, a LANCE IC50 assay was established using methods similar to those described above. JBS2572 or JBS3216 was added to a preformed C4BP/PS complex. Changes in the complex concentration were followed by recording the TR-FRET signal. For both peptides, a time- and concentration-dependent dissociation of the C4BP/PS complex was observed. The IC50 of JBS3216 was 0.3 nM, and the IC50 of JBS2572 was 2 nM. The time-dependency of the complex reduction was similar for both peptides. After two hours of incubation in the presence of 100 nM JBS2572 or JBS3216, the C4BP/PS complex was reduced to 60% and 50%, respectively. In addition, binding of biotinylated JBS2572 to Protein S was inhibited by C4BP in the LANCE IC50 assay. Pull-down experiments where JBS2697 was coupled to streptavidin sepharose and incubated for one hour at room temperature with (a) Protein S (1.6 pmol) (b) C4BP (8.5 pmol) and (c) Protein S (1.6 pmol)+C4BP (8.5 pmol) supported the results from the modified LANCE IC50 assay.

For data set [4], the system named is Protein S/APC dependent thrombin generation. Put plainly: CAT assay in plasmas from individuals with severe hemophilia A. Format: biochemical, human. Particulars: plasma of severe hemophilia A patients.
The nature of data set [5]: plasma stability in pooled normal human plasma. The class given is in vitro ADME. The protocol:
as §1

Regarding `CSCC[C@H](NC(=O)[C@H](Cc1ccc(O)cc1)NC(=O)[C@H](Cc1c[nH]cn1)NC(=O)[C@H](CC(=O)O)NC(=O)[C@H](Cc1ccccc1)NC(=O)[C@H](CC(N)=O)NC(=O)[C@H](Cc1ccc(O)cc1)NC(=O)[C@H](CC(=O)O)NC(=O)[C@H](Cc1ccc(O)cc1)NC(=O)[C@H](Cc1c[nH]c2ccccc12)NC(=O)CNC(=O)[C@H](C)NC(=O)[C@H](CO)NC(=O)[C@@H](NC(=O)[C@H](CC(C)C)NC(=O)CNC(=O)[C@H](Cc1ccc(O)cc1)NC(C)=O)C(C)C)C(=O)N[C@@H](CCC(=O)O)C(=O)N[C@@H](Cc1ccccc1)C(=O)N[C@H](C(N)=O)[C@@H](C)O` [JBS3196] (Ac-YGLVSAGWYDYNFDHYMEFT-NH2), on Protein S, the IC50 (in general, the concentration at which inhibition is half-maximal) is 2.2 nM. Also, the EC50 (usually the midpoint of the concentration-response curve) in data set [1] is 155 nM.

`CSCC[C@H](NC(=O)[C@H](Cc1ccc(O)cc1)NC(=O)[C@@H](NC(=O)[C@H](CC(=O)O)NC(=O)[C@H](CC(N)=O)NC(=O)[C@H](CC(N)=O)NC(=O)[C@H](Cc1ccc(O)cc1)NC(=O)[C@H](CC(=O)O)NC(=O)[C@H](Cc1ccc(O)cc1)NC(=O)[C@H](Cc1c[nH]c2ccccc12)NC(=O)CNC(=O)[C@H](C)NC(=O)[C@H](CCC(=O)O)NC(=O)[C@@H](NC(=O)[C@H](CC(C)C)NC(=O)CNC(=O)[C@H](Cc1ccc(O)cc1)NC(C)=O)C(C)C)[C@@H](C)O)C(=O)N[C@@H](CCC(=O)O)C(=O)N[C@@H](Cc1ccccc1)C(=O)N[C@H](C(N)=O)[C@@H](C)O` [JBS3201] (Ac-YGLVEAGWYDYNNDTYMEFT-NH2): the IC50 on Protein S worked out at 1.9 nM. The same compound displayed an EC50 in data set [1] of 127 nM.

Consider `CSCC[C@H](NC(=O)[C@H](Cc1ccc(O)cc1)NC(=O)[C@H](Cc1c[nH]cn1)NC(=O)[C@H](CC(=O)O)NC(=O)[C@H](Cc1ccccc1)NC(=O)[C@H](CC(N)=O)NC(=O)[C@H](Cc1ccc(O)cc1)NC(=O)[C@H](CC(=O)O)NC(=O)[C@H](Cc1ccc(O)cc1)NC(=O)[C@H](Cc1c[nH]c2ccccc12)NC(=O)CNC(=O)[C@H](C)NC(=O)[C@H](CO)NC(=O)[C@@H](NC(=O)[C@H](CC(C)C)NC(=O)CNC(=O)[C@@H](NC(C)=O)[C@@H](C)O)C(C)(C)C)C(=O)N[C@@H](CCC(=O)O)C(=O)N[C@@H](Cc1ccccc1)C(=O)N[C@H](C(N)=O)[C@@H](C)O` [JBS3203, Ac-TGL-Tle-SAGWYDYNFDHYMEFT-NH2] (Ac-TGL[Tle]SAGWYDYNFDHYMEFT-NH2), for which the IC50 on Protein S was 1.8 nM. In data set [1], the EC50 is 127 nM.

Consider `CC(=O)N[C@@H](CCC(=O)O)C(=O)N[C@@H](Cc1ccc(O)cc1)C(=O)N[C@@H](Cc1ccc(O)cc1)C(=O)N[C@H](C(=O)N[C@@H](CO)C(=O)N[C@@H](C)C(=O)NCC(=O)N[C@@H](Cc1c[nH]c2ccccc12)C(=O)N[C@@H](Cc1ccc(O)cc1)C(=O)N[C@@H](CC(=O)O)C(=O)N[C@@H](Cc1ccc(O)cc1)C(=O)N[C@@H](CC(N)=O)C(=O)N[C@H](C(=O)N[C@@H](CC(=O)O)C(=O)N[C@H](C(=O)N[C@@H](Cc1ccc(O)cc1)C(=O)N[C@@H](Cc1ccc(O)cc1)C(=O)N[C@@H](CCC(=O)O)C(=O)N[C@@H](Cc1ccccc1)C(=O)N[C@@H](CCC(=O)O)C(N)=O)[C@@H](C)O)[C@@H](C)O)C(C)C` [JBS3216] (Ac-EYYVSAGWYDYNTDTYYEFE-NH2), for which the koff (as a rule, a measure of how fast the partners let go of each other) in data set [2] (Table 3, read-out: koff) was 0.000233 s⁻¹. For the same compound, the kon (usually a measure of how fast the partners come together) in data set [2] (Table 3, read-out: kon) was 1.14e+06 M⁻¹ s⁻¹. In data set [2] (affinity-matured and modified peptides, read-out: KD), the Kd (usually the constant that tells how readily two partners part at equilibrium) is 0.2 nM. In data set [3], the “Stability in mouse plasma; 4 hours [%]” value amounted to 66 ± 23%. In addition, the “thrombin generation in non-human mammals” value with thrombin generation is given as “improved thrombin generation”. The “C4BP/PS complex reduced to” value on C4BP/PS complex was 50%. Also, the EC50 in data set [4] was 85 nM. Moreover, in data set [5] (24 hours of incubation in human plasma), the “binding activity remaining after incubation in human plasma” value came out at 50%. In data set [5] (pooled normal human plasma, 37° C., 6 hours), the “Stability in human plasma; 6 hours [%]” value was found to be 80 ± 2%.
